Values joined by “and” are separate entries in the source; they are usually repeats but may differ in a detail not shown here. Identical values can stand only once. Counter-ions that a name gives are not always drawn. Like-named read-outs stand apart in the source and are kept apart here. One block for each molecule: values may come before it.
Key:
HIV-1 [1] = experiment: microbe, parasite or virus in culture; conditions: for EC50: Human immunodeficiency virus 1, read-out: EC50(HIV-1)
Source text: (§2) (EC50 is concentration to reduce HIV plaques by 50% and expressed as mean ±standard deviation).

HIV-1LAI = experiment: HIV plaque reduction assay, wild-type strain; type: cell-based; conditions: Human immunodeficiency virus 1
Experimental: (§3) Compounds of the invention were tested in a plaque-forming assay of HIV-1 proliferation in a human CD4+lymphocytic cell line (HT-4) by the procedures described in K. Y. Hostetler et al., J. Biol. Chem., 265:6112-6117 (1990); and K. Y. Hostetler et al., J. Biol. Chem., 266:11714-11717 (1991). […] (EC50 is concentration to reduce HIV plaques by 50% and expressed as mean ±standard deviation).
(§4) The assays were conducted by procedures of Example 27 above and as disclosed in K. Y. Hostetler et al., J. Biol. Chem., 265:6112-6117 (1990); and K. Y. Hostetler et al., J. Biol. Chem., 266:11714-11717 (1991).

A018-post [2] = conditions: AZT-resistant, AZT data from Larder et al., Science 1989; cited from earlier work
LAI-E89K = experiment: HIV plaque reduction assay, PFA-resistant strain; type: cell-based, HIV-1
Experimental: as §3, §4

[3] = Toxicity in HT4-6C cells by visual grading of cell morphology; conditions: human
Experimental: (§1) Selected compounds of the invention and PFA were tested for activity in HT4-6C cell by procedures disclosed in B. A. Larder et al., Science, 243:1731-1734 (1989). […] The TC50 values were determined using the following visual grading scale after 3 days to exposure to the tested drug compound: 4—normal appearance; 3—slight reduction of normal cells; 2-50% of cells appear normal; 1—sparse number of normal appearing cells; 0—no living cells. Values reported in the Table below are mean ±standard deviation.

HIV-1 [4] = conditions: for reduction of the number of viral plaques: at 1 μM, the highest concentration achievable in the growth medium
Source text: as §2

[5] = system: human T-Lymphoblastic Leukemia Cells (CEM cells); experiment: Toxicity in CEM cells by propidium iodide staining and flow cytometry; type: cell-based; conditions: for Selectivity Index: TC50 in CEM cells / EC50; for CC50: rapidly dividing CEM cells, viable cell numbers, read-out: TC50 (the source's name)
Experimental: TC50 values were also assessed by exposing rapidly dividing human T-Lymphoblastic Leukemia Cells (CEM cells) to selected compounds of the invention and PFA. Viable cell numbers were determined by propidium iodide staining and fluorescent flow cytometry according to procedures disclosed in Dangl et al., Cytometry, 2:395-401 (1982).

HT4-6C cells = experiment: Toxicity in HT4-6C cells by visual grading of cell morphology; conditions: for Selectivity Index: TC50/EC50, HT4-6C cells
Experimental: as §1

A018-post [6] = experiment: HIV plaque reduction assay, AZT-resistant strain; type: cell-based, HIV-1; conditions: Human immunodeficiency virus 1
Experimental: as §3, §4

Structure (SMILES): CCCCCCCCCCCCCCCCCCOC(=O)P(=O)(O)OC (as salt: sodium) [Example 8, Sodium Methyl 1-octadecyloxycarbonylphosphonate]
- melting point: 92 to 93 °C

Structure (SMILES): CCCCCCCCCCCCCCCCCCCCOC(=O)P(=O)(O)OC (as salt: sodium) [Example 9, Sodium Methyl 1-eicosanyloxycarbonylphosphonate]
- melting point: 95 to 96 °C

Structure (SMILES): Cc1cn([C@H]2C[C@H](N=[N+]=[N-])[C@@H](CO)O2)c(=O)[nH]c1=O [AZT, 3′-azido-3′-deoxythymidine]
- EC50 (HIV-1 [1]): 7 nM
- EC50 (HIV-1LAI): 13 ± 6 nM
- EC50 (A018-post [2]): 4 µM and 2.3 µM
- EC50 (LAI-E89K; Human immunodeficiency virus 1): 0.009 ± 0.005 µM

Structure (SMILES): CCCCCCCCCCCCCCCCCCOC(=O)P(=O)(O)OC [Example 8, Sodium Methyl 1-octadecyloxycarbonylphosphonate]
- CC50 at 3 days [3]: 10 µM
- reduction of the number of viral plaques (HIV-1 [4]; HT-4 cells): 35%

Structure (SMILES): CCCCCCCCCCCCCCCCCCCCOC(=O)P(=O)(O)OC [Example 9, Sodium Methyl 1-eicosanyloxycarbonylphosphonate]
- CC50 at 3 days [3]: 10 µM
- reduction of the number of viral plaques (HIV-1 [4]; HT-4 cells): 35%

- melting point: 224 °C (dec.)
Structure (SMILES): CCCCCCCCCCCCCCCCCCOC(=O)O[PH](=O)OC[C@H]1O[C@@H](n2cc(C)c(=O)[nH]c2=O)C[C@@H]1N=[N+]=[N-] (some centres unmarked) [Example 20, 3′-azido-3′-deoxy-5′-O-(1-octadecyloxycarbonyloxyphosphinyl)thymidine]

Structure (SMILES): CCCCCCCCCCCCCCCCCCOC(=O)P(=O)(O)OC[C@H]1O[C@@H](n2cc(C)c(=O)[nH]c2=O)C[C@@H]1N=[N+]=[N-] [Example 20]
- EC50 (HIV-1LAI): 100 ± 150 nM
- Selectivity Index [5]: 280
- CC50 [5]: 28 µM
- CC50 at 3 days [3]: 10 µM
- Selectivity Index (HT4-6C cells): 100
- EC50 (A018-post [6]): 300 ± 320 nM
- EC50 (LAI-E89K; Human immunodeficiency virus 1): 0.13 ± 0.14 µM

- melting point: 230 °C (dec.)
Structure (SMILES): CCCCCCCCCCCCCCCCCCCCOC(=O)O[PH](=O)OC[C@H]1O[C@@H](n2cc(C)c(=O)[nH]c2=O)C[C@@H]1N=[N+]=[N-] (some centres unmarked) [Example 21]

Structure (SMILES): CCCCCCCCCCCCCCCCCCCCOC(=O)P(=O)(O)OC[C@H]1O[C@@H](n2cc(C)c(=O)[nH]c2=O)C[C@@H]1N=[N+]=[N-] [Example 21]
- EC50 (HIV-1 [1]): 50 nM
- EC50 (HIV-1LAI): 140 ± 160 nM
- Selectivity Index [5]: 257
- CC50 [5]: 36 µM
- CC50 at 3 days [3]: 32 µM
- Selectivity Index (HT4-6C cells): 228
- cytotoxicity (HT4-6C cells; at 0.1-1.0 μM): slight to moderate
- cytotoxicity (HT4-6C cells; at 10 and 100 μM): significant
- therapeutic selectivity (HT4-6C cells; toxic concentration over EC50(HIV-1)): ca. 200
- fold less active than AZT (HIV-1 [4]; EC50(HIV-1) compared with AZT): 7 fold
- times more active than PFA (HIV-1 [4]; EC50(HIV-1) compared with PFA): 2,800 times
- EC50 (A018-post [6]): 530 ± 680 nM
- EC50 (LAI-E89K; Human immunodeficiency virus 1): 0.009 ± 0.007 µM

- melting point: 238 °C (dec.)
Structure (SMILES): CCCCCCCCCCCCCCCCCCCCCCOC(=O)O[PH](=O)OC[C@H]1O[C@@H](n2cc(C)c(=O)[nH]c2=O)C[C@@H]1N=[N+]=[N-] (some centres unmarked) [Example 22, 3′-Azido-3′-deoxy-5′-O-(1-docosanyloxycarbonyloxyphosphinyl) thymidine]

Structure (SMILES): CCCCCCCCCCCCCCCCCCCCCCOC(=O)P(=O)(O)OC[C@H]1O[C@@H](n2cc(C)c(=O)[nH]c2=O)C[C@@H]1N=[N+]=[N-] [Example 22]
- EC50 (HIV-1LAI): 320 ± 200 nM
- Selectivity Index [5]: 291
- CC50 [5]: 93 µM
- CC50 at 3 days [3]: 320 µM
- Selectivity Index (HT4-6C cells): 1000
- EC50 (A018-post [6]): 770 ± 1100 nM
- EC50 (LAI-E89K; Human immunodeficiency virus 1): 0.17 ± 0.11 µM

Structure (SMILES): Cc1cn([C@H]2C[C@H](N=[N+]=[N-])[C@@H](COP(=O)(O)C(=O)O[C@H]3CC[C@@]4(C)C(=CC[C@H]5[C@@H]6CC[C@H]([C@H](C)CCCC(C)C)[C@@]6(C)CC[C@@H]54)C3)O2)c(=O)[nH]c1=O [Example 23]
- IC50 (HIV-1 [4]; read-out: IC50 (HIV-1), plaque-forming assay, HT-4 cells): 250 nM

Structure (SMILES): CCCCCCCCCCCCCCCCOCCCOP(=O)(O)C(=O)OC[C@H]1O[C@@H](n2cc(C)c(=O)[nH]c2=O)C[C@@H]1N=[N+]=[N-] [Example 25]
- CC50 [5]: 65 µM
- EC50 (LAI-E89K; LAI-E89K, PFA-resistant, mean ± SD of 3 experiments, Example 25: single test value, read-out: EC50): 1.3 µM

Structure (SMILES): O=C(O)P(=O)(O)O [PFA, phosphonoformic acid, reference compound]
- IC50 (HIV-1 [1]; Human immunodeficiency virus 1, read-out: IC50 (HIV-1)): 133 µM
- EC50 (HIV-1LAI): 133000 ± 54000 nM
- EC50 (A018-post [6]): 65000 ± 13000 nM
- EC50 (LAI-E89K; Human immunodeficiency virus 1): > 1000 µM

Reference: patent publication US6686462B2 (The Regents of the University of California, priority 1997, dated 2004)
